The results in this text go back to PubChem BioAssay (NCI).

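Dose response: 5 concentrations. Exposure: 48 h. Format: 96-well plates. Endpoint: linear interpolation; highest concentration if not reached. GI50 = concentration required for 50% inhibition of growth. TGI: concentration producing complete growth inhibition.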 Some results are limits rather than exact numbers.

The first assay concerns CCRF-CEM leukemia. The assay can be described thus: growth of human tumour cells (NCI), 48 h.
Regarding `CCN(CC)CC(C)Nc1ccc([N+](=O)[O-])c2sc3ccccc3c(=O)c12` (stereo unspecified), the GI50 is 2.44 µM and the TGI stood at 10.5 µM.

With `CCOC(=O)CSc1nc(N)c2c(-c3ccc(OC)c(OC)c3)c3c(nc2n1)CCCC3`, the TGI is greater than 100 µM.

For the molecule `CNC(=O)OC(C)CN1c2ccccc2Sc2ccc(Cl)cc21` (stereo unspecified), the TGI is greater than 10 µM.

Regarding `O=C(CCCCCCC(=O)Nc1ccc(N(CCCl)CCCl)cc1)NO`, the GI50 was 0.405 µM and the TGI was greater than 100 µM.

As to `CN1CC[C@@]2(c3cccc(O)c3)CC(=O)/C(=C/c3ccccc3)[C@H]1C2`, the TGI was greater than 27.7 µM.

With `O=C(N/N=C(/c1ccccc1)C(F)(F)F)c1ccncc1`, the TGI is greater than 100 µM.

In turn, `ONc1ncnc2nc[nH]c12` returned a TGI greater than 100 µM.

In turn, `CCCc1[nH]c(SCCCCCCCCSc2nc(-c3ccc(F)cc3)c(CCC)[nH]2)nc1-c1ccc(F)cc1` had a TGI greater than 100 µM.

For the molecule `O=S(=O)(O)c1ccc2cccc(N=Nc3c(O)ccc4ccccc34)c2c1`, the TGI is greater than 100 µM.

Turning to `COc1ccc2nc(-c3ccc(-c4noc(-c5cc(OC)c(OC)c(OC)c5)n4)cc3)[nH]c2c1`, the GI50 was 2.2 µM and the TGI was greater than 100 µM.

For `COc1ccc(/C(=C2/O[C@@H]([C@H]3COC(C)(C)O3)[C@H]3OC(C)(C)O[C@@H]23)c2cc(OC)c(OC)c(OC)c2)cc1O`, the GI50 is 5.45 µM and the TGI was greater than 100 µM.

In turn, `Cn1c(=O)c2c(nc(-n3nc(-c4ccc(Cl)cc4)cc3N)n2C)n(C)c1=O` returned a TGI greater than 100 µM.

With `N=c1c2c(C(N)=O)cn(C3OC(CO)C(O)C3O)c2ncn1O` (stereo unspecified), the TGI came out at 1.46 µM.

With `Cc1nc(N)nc(N)c1-c1ccc(Cl)c(Cl)c1`, the TGI is greater than 100 µM.

The molecule `Cc1cccc2nc3c(C(=O)NCCN(C)C)cccc3cc12` had a TGI of 5.41 µM.

Molecule `C[C@]12CC[C@@H]3c4ccc(OP(=O)(O)O)cc4CC[C@H]3[C@@H]1CCC2=O` displayed a TGI greater than 100 µM.

In the case of `COc1ccc2nc(N/N=C/C(C)=N/Nc3cc(C)c4cc(OC)ccc4n3)cc(C)c2c1`, the TGI worked out at 5.45 µM.

Take `CN(C)CC(=O)Nc1ccc(Cn2nnc3c2C(=O)c2nnn(Cc4ccc(NC(=O)CN(C)C)cc4)c2C3=O)cc1`: the GI50 was 0.204 µM and the TGI was 0.747 µM.

In the next assay the test system is HCC-2998 colon. The assay is described as follows: growth of human tumour cells (NCI), 48 h.
Take `CCN(CC)CC(C)Nc1ccc([N+](=O)[O-])c2sc3ccccc3c(=O)c12` (stereo unspecified): the GI50 was 2.21 µM and the TGI came to 11.9 µM.

On to `N=C(N)c1ccc(-c2ccc(-c3cc(Cl)cc(Cl)c3)o2)nc1`, for which the GI50 is 1.92 µM and the TGI stood at 3.8 µM.

`CNC(=O)OC(C)CN1c2ccccc2Sc2ccc(Cl)cc21` (stereo unspecified) displayed a TGI greater than 10 µM.

Turning to `O=C(CCCCCCC(=O)Nc1ccc(N(CCCl)CCCl)cc1)NO`, the GI50 is 9.26 µM and the TGI was determined as 22.6 µM.

For `CN1CC[C@@]2(c3cccc(O)c3)CC(=O)/C(=C/c3ccccc3)[C@H]1C2`, the TGI was 25 µM.

In turn, `O=C(N/N=C(/c1ccccc1)C(F)(F)F)c1ccncc1` displayed a TGI greater than 100 µM.

`ONc1ncnc2nc[nH]c12` yielded a TGI greater than 100 µM.

As to `CCCc1[nH]c(SCCCCCCCCSc2nc(-c3ccc(F)cc3)c(CCC)[nH]2)nc1-c1ccc(F)cc1`, the TGI is greater than 100 µM.

`O=S(=O)(O)c1ccc2cccc(N=Nc3c(O)ccc4ccccc34)c2c1` displayed a TGI greater than 100 µM.

In the case of `COc1ccc2nc(-c3ccc(-c4noc(-c5cc(OC)c(OC)c(OC)c5)n4)cc3)[nH]c2c1`, the GI50 is 35.5 µM and the TGI was greater than 100 µM.

For `COc1ccc(/C(=C2/O[C@@H]([C@H]3COC(C)(C)O3)[C@H]3OC(C)(C)O[C@@H]23)c2cc(OC)c(OC)c(OC)c2)cc1O`, the GI50 was 31.1 µM and the TGI is 80.4 µM.

The molecule `Cn1c(=O)c2c(nc(-n3nc(-c4ccc(Cl)cc4)cc3N)n2C)n(C)c1=O` came in with a TGI greater than 100 µM.

Turning to `CCS(=O)(=O)Nc1ccc(Nc2c3ccccc3nc3ccccc23)c(OC)c1`, the TGI worked out at 9.3 µM.

In turn, `Cc1nc(N)nc(N)c1-c1ccc(Cl)c(Cl)c1` registered a TGI greater than 50.6 µM.

As to `Cc1cccc2nc3c(C(=O)NCCN(C)C)cccc3cc12`, the TGI came to 5.36 µM.

`C[C@]12CC[C@@H]3c4ccc(OP(=O)(O)O)cc4CC[C@H]3[C@@H]1CCC2=O` yielded a TGI greater than 100 µM.

Consider `CCSCCC(N)C(=O)O` (stereo unspecified), for which the TGI was greater than 100 µM.

In turn, `COc1ccc2nc(N/N=C/C(C)=N/Nc3cc(C)c4cc(OC)ccc4n3)cc(C)c2c1` yielded a TGI of 47.1 µM.

As for `CN(C)CC(=O)Nc1ccc(Cn2nnc3c2C(=O)c2nnn(Cc4ccc(NC(=O)CN(C)C)cc4)c2C3=O)cc1`, the GI50 was 0.162 µM and the TGI is 0.37 µM.

The next assay relates to HL-60(TB) leukemia. The assay is described as follows: growth of human tumour cells (NCI), 48 h.
Take `CCN(CC)CC(C)Nc1ccc([N+](=O)[O-])c2sc3ccccc3c(=O)c12` (stereo unspecified): the GI50 was 2.82 µM and the TGI was found to be 11.7 µM.

For `N=C(N)c1ccc(-c2ccc(-c3cc(Cl)cc(Cl)c3)o2)nc1`, the GI50 was 2.42 µM and the TGI came out at 4.62 µM.

`CCOC(=O)CSc1nc(N)c2c(-c3ccc(OC)c(OC)c3)c3c(nc2n1)CCCC3` yielded a TGI greater than 100 µM.

`CNC(=O)OC(C)CN1c2ccccc2Sc2ccc(Cl)cc21` (stereo unspecified) showed a TGI greater than 10 µM.

Molecule `CN1CC[C@@]2(c3cccc(O)c3)CC(=O)/C(=C/c3ccccc3)[C@H]1C2` came in with a TGI of 7.73 µM.

`O=C(N/N=C(/c1ccccc1)C(F)(F)F)c1ccncc1` came in with a TGI greater than 100 µM.

`ONc1ncnc2nc[nH]c12` returned a TGI greater than 100 µM.

The molecule `CCCc1[nH]c(SCCCCCCCCSc2nc(-c3ccc(F)cc3)c(CCC)[nH]2)nc1-c1ccc(F)cc1` came in with a TGI greater than 100 µM.

Take `O=S(=O)(O)c1ccc2cccc(N=Nc3c(O)ccc4ccccc34)c2c1`: the TGI is greater than 100 µM.

In the case of `COc1ccc2nc(-c3ccc(-c4noc(-c5cc(OC)c(OC)c(OC)c5)n4)cc3)[nH]c2c1`, the GI50 was 20.2 µM and the TGI was 81.7 µM.
